Assay results taken from patent US20250120969A1, “METHODS AND COMPOSITIONS FOR TREATING INFLAMMATION INJURY IN THE LUNGS” (CalciMedica, Inc., priority 2022, published 2025).

Tests used:
human lymphocytes = test: In vitro cytokine release in human lymphocytes; type: cell-based
From the text: (§1) Preclinical data supports the use of CRAC inhibitors (e.g. N-(5-(6-Chloro-2,2-difluorobenzo[d][1,3]dioxol-5-yl)pyrazin-2-yl)-2-fluoro-6-methylbenzamide, Compound 1) in severe COVID-19 pneumonia.

CRAC channels = CRAC channels (Homo sapiens, UniProt Q96D31); test: CRAC channel inhibition
[1] = system: patients with AP and accompanying SIRS plus hypoxemia; test: Clinical and pharmacodynamic study in patients with acute pancreatitis, SIRS and hypoxemia; settings: human, in vivo
[2] = system: lung tissue cytokines and neutrophil infiltration; test: Animal models of acute pancreatitis (AP) and lung injury; type: in vivo
From the text: as §1

Chain of CRAC channels (Q96D31 whole entry): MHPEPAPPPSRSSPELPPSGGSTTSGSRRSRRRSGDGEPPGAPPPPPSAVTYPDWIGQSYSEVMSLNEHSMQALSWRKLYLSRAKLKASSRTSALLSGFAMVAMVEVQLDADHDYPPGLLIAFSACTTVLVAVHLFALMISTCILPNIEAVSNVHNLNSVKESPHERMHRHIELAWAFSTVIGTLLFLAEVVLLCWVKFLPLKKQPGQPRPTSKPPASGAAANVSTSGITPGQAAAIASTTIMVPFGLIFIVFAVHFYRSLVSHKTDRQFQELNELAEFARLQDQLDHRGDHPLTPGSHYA

Cc1cccc(F)c1C(=O)Nc1cnc(-c2cc3c(cc2Cl)OC(F)(F)O3)cn1 [Compound 1, N-(5-(6-Chloro-2,2-difluorobenzo[d][1,3]dioxol-5-yl)pyrazin-2-yl)-2-fluoro-6-methylbenzamide]
Release of multiple cytokines (human lymphocytes): inhibits release of multiple cytokines | Inhibition of CRAC channels (CRAC channels): potent and selective | IL-6 levels in patients [1]: marked reduction in IL-6 levels | Respiratory dysfunction in patients [1]: beneficial effects on respiratory dysfunction | Cytokines and neutrophil infiltration in lung tissue [2]: inhibit cytokines and neutrophil infiltration in lung tissue
